Structures can show the parent of a compound that is named as a salt. Where two headings read alike, the source gives them in different places.
Legend:
A549-ACE2 cells = assay: cells; type: cell-based; settings: for activation at 10 µM: A549-ACE2, 24 h, read-out: PLD_Effect(%) A549-ACE2
Vero-E6 cells = assay: cells; type: cell-based; settings: for activation at 10 µM: Chlorocebus sabaeus, Vero C1008, 24 h
[1] = read-out: AC50 (value); cited from earlier work
[2] = read-out: PLD_Effect(%) VERO-E6

SMILES	activation at 10 µM (A549-ACE2 cells)	activation at 10 µM (Vero-E6 cells; [2])	activation at 10 µM (Vero-E6 cells; read-out: PL_Result)	other results
CN1CCN(C2=Cc3ccccc3Oc3ccc(Cl)cc32)CC1 [2-CMDO]	92.5%	61.3%		
Cc1[nH]c2ccc(Cl)cc2c1C1=CCNCC1 [EMD-386088]	79.1%	96.8%		
CN1CC2c3ccccc3Oc3ccc(Cl)cc3C2C1 (stereo not drawn) [asenapine maleate]	66.1%	65.2%		
COc1cc(CN(CCN)C(=O)c2cccs2)ccc1OCc1ccccc1 [M8-B]	72.2%	85.4%		
CN(C)CCCN1c2ccccc2Sc2ccc(C(F)(F)F)cc21 [TRIFLUPROMAZINE HYDROCHLORIDE]				AC50 [1]: 3 nM
O=C(Nc1ncc(SCCN2CCCC2)s1)[C@]1(c2ccc(S(=O)(=O)C3CC3)cc2)C[C@H]1C1CCCCC1 [LY2608204]	95.6%	55.8%		
O=C(O[C@H]1CN2CCC1CC2)N(Cc1cc(F)c(F)c(F)c1)c1cccc(F)c1 [Tarafenacin (D-tartrate)]	91.5%	71.4%		
O=C1NC(=O)c2cc(Nc3ccccc3)c(Nc3ccccc3)cc21 [CGP-52411, reference compound]			-10.9%	result_KI (A549-ACE2 cells): -10.8674 percent effect; result_ITMP (Vero-E6 cells): -7.23 percent effect
CC(COc1ccccc1Cc1ccccc1)N1CCCCC1 (stereo not drawn) [Benproperine Phosphate]	81.6%	72%		
CCC(C)CNCC(=O)N1CCc2sccc2C1COc1cccc(C)c1 (stereo not drawn) [RU-SKI-43]	85.5%	57.8%		
CC(=O)c1ccc2c(c1)N(CCCN1CCN(CCO)CC1)c1ccccc1S2 [ACETOPHENAZINE MALEATE]	52.6%	74.4%		
CCc1cc(Cl)c(OC)c(C(=O)NC[C@@H]2CCCN2CC)c1O [eticlopride, reference compound]				result_KI (A549-ACE2 cells): 92.2773 percent effect; result_ITMP (Vero-E6 cells): 41.39 percent effect
c1ccc2c(CCNc3ccc(Nc4ccncc4)cc3)c[nH]c2c1 [JNJ 26854165 (Serdemetan)]	88.4%	74%		
O=C(CN1C2=NCCN2c2ccccc21)c1ccc(-c2ccccc2)cc1 [CCT-031374]	69.9%	53.9%		
CCCCN(CCCC)CCC(O)c1cc2c(Cl)cc(Cl)cc2c2cc(C(F)(F)F)ccc12 (stereo not drawn) [Halofantrine?HCl]	77.7%	68.8%		
CCSc1ccc2c(c1)N(CCCN1CCN(C)CC1)c1ccccc1S2 [thiethylperazine]	98%	59.1%		
CCn1c2ccccc2c2cc(CNC)ccc21 [PhiKan-083]	83.6%	73.3%		
COc1cccc(CCc2ccccc2OCC[C@@H]2C[C@@H](O)CN2C)c1 [R-96544]	92.6%	90.4%		
CCC[C@H](N[C@@H](C)C(=O)N1[C@H](C(=O)O)C[C@@H]2CCCC[C@@H]21)C(=O)O [SPE_K00768353]			-9.94%	
CN(C)c1nc(N)c(C(=O)Nc2cccnc2)nc1Cl [SPE_K68633617]			-11.7%	
CCC[C@H](N[C@@H](C)C(=O)N1[C@H](C(=O)O)C[C@@H]2CCCC[C@@H]21)C(=O)OCC [SPE_K92731339]			4.37%	
CC1(C)O[C@@H]2CC3C4C[C@H](F)C5=CC(=O)C=CC5(C)C4C(O)CC3(C)[C@]2(C(=O)CO)O1 (stereo partly drawn) [SPE_A65449987]			6.74%	
C[C@H](CCC(=O)O)[C@H]1CC[C@H]2[C@@H]3C[C@H](O)[C@@H]4C[C@H](O)CC[C@]4(C)[C@H]3CC[C@]12C [SPE_K49031386]			-3.75%	
OC(c1ccccc1)C1CCN(CCc2ccccc2)CC1 (stereo not drawn) [SPE_A62057054]			3.01%	
OC[C@H]1O[C@@H](c2ccc(Cl)c(Cc3ccc(O[C@H]4CCOC4)cc3)c2)[C@H](O)[C@@H](O)[C@@H]1O [SPE_K53765467]			-10%	
CCS(=O)(=O)c1cccc(-c2cc(C(=O)NC3CCN(C)CC3)c(C)c3[nH]c4ncc(C)cc4c23)c1 [SPE_K01683783]			-6.51%	
Nc1ccc(S(=O)(=O)Nc2ccc(Cl)nn2)cc1 [SPE_K32021043]			5.81%	

Reference: paper PMC13083723 (Patterns, 2026)
